Experimental data taken from patent US20100255580A1, “Differentiation of Human Embryonic Stem Cells” (LIFESCCAN, INC., priority 2007, published 2010).

System: human embryonic stem cells (H9, H7) on MATRIGEL
Experiment: Real-time PCR of definitive endoderm markers, DE protocol on […] or fibronectin (feeder-free)
Assay type: cell-based
Conditions: for expression of definitive endoderm markers: with 50 ng/ml of AA, 20 ng/ml Wnt-3A or 100 nM GSK-3B inhibitor IX
Description: Real-time PCR amplification and quantitative analysis.
Final data were expressed relative to a calibrator sample.
Differentiation of embryonic stem cells to definitive endoderm was carried out as previously described in Nature Biotechnology 23, 1534-1541 (December 2005). […] In all subsequent examples unless otherwise noted, this treatment regimen will be referred to as the definite endoderm (DE) protocol. In parallel, H9, H7, or H1 cells cultured on MEF feeders were also exposed to the same DE protocol outlined above.
At day 5, the cultures were analyzed by FACS for CXCR4, E-cadherin, CD9, CD99, and N-cadherin (CD56) expression and by real time PCR for SOX-17, SOX-7, Alpha-fetal protein (AFP), CXCR4, Brychyury (Bry), gooscecoid (GSC), HNF-3 beta, and GATA4. AFP and SOX-7 are regarded as visceral endoderm markers while GATA4, HNF-3beta and SOX-17 represent definite endoderm markers and GSC, Bry, and CXCR4 represent markers of primitive streak.
In some of the cultures 20 ng/ml Wnt-3a (Catalog #1324-WN-002, R&D Systems, MN), 20 ng/ml Wnt-5a (Catalog #654-WN-010, R&D Systems, MN), 25 ng/ml Wnt-7a (Catalog #3008-WN-025, R&D Systems, MN), or 25 ng/ml Wnt-5b (Catalog #3006-WN-025, R&D Systems, MN) was added throughout the five day treatment. FIG. 24 depicts phase contrast images of H9P46 definitive endoderm culture in the presence of high concentration of (a) AA or (b) AA+20 ng/ml Wnt-3a. FIG. 25 depicts the expression of CXCR4 by FACS at day 5 for H7P44, and H9P46 lines cultured on […] (1:30 dilution) and exposed to the DE protocol+Wnt-3a (FIG. 25, panels b and d) and −Wnt-3a (FIG. 25, panels a and c).
Control cultures were not treated with Wnt-3a. FIG. 27, panel a depicts the expression of CXCR4 by FACS at day 5 in the absence of Wnt-3a, b) 10 ng/ml Wnt-3a, c) 20 ng/ml Wnt-3a and d) 50 ng/ml Wnt-3a. In the absence of Wnt-3a the expression of CXCR4 was very low. […] Real-time PCR results (FIG. 28, panel a) also confirm this finding.
In a separate study, H9 p52 cells were plated on 1:30 low growth factor […]™. For the first 2 days of the DE protocol a range of Wnt3A doses was used: 10 ng/ml, 5 ng/ml and 1 ng/ml. […] The number of cells at the end of the experiment is noted in FIG. 28, panel c.
In order to confirm that the effect of Wnt-3a was through the Wnt pathway, a GSK-3 inhibitor was used to activate the downstream targets of Wnt, such as beta catenin. […] FIG. 29, panel a depicts the expression of CXCR4 by FACS at day 5 in the absence of Wnt-3a or GSK-3B inhibitor, b) +20 ng/ml Wnt-3a, c) +1000 nM GSK-3B inhibitor IX, d) +500 nM GSK-3B inhibitor IX, e) +100 nM GSK-3B inhibitor IX, f) +10 nM GSK-3B inhibitor IX, g) +100 nM GSK-3B inhibitor IX for days 1-2, and h) +10 nM GSK-3B inhibitor IX for days 1-2.
FIG. 31 panels a-d is for H9P49 cells and panels e-f is for H1P46 cells.
Results are expressed as fold increase over untreated cells. […] Results are expressed as fold increase over untreated cells.
H9P55 cells were grown and differentiated on human fibronectin or regular growth factor […]™ (BD Biosciences). lml of DMEM/F12 (Invitrogen/GIBCO) containing 1 ug/ml of human fibronectin (R&D systems, MN) was added to each well of 6 well tissue culture treated dish. Alternatively, regular growth factor […]™ was diluted 1:10 in DMEM/F12 and 1 ml of diluted […]™ was added to each well of 6 well tissue culture treated dish. Cells were passed with collagenase. […] Real-time PCR results (FIG. 39) confirm that formation of definitive endoderm was equivalent on fibronectin and […]™ coated plates.
To determine if the addition of Wnt-3a was causing the increase in differentiation, an inhibitor of Wnt-3 signaling was added to the cultures. […] H9 cells were cultured on plates coated with Growth Factor Reduced […] at a 1:30 dilution. The plates were coated with […] for 1 hr at room temperature. […]

Row | Compound | expression of definitive endoderm markers (H9P49) | outcome of lower doses of activin A (H9P49, with Wnt-3a or GSK-3B inhibitor IX) | definitive endoderm markers (real-time PCR) (H7 and H9, low serum+AA+/−Wnt ligands, 5 days) | Wnt3a dose sufficient to reach optimal cell expansion and definitive endoderm differentiation (H9 p52, for 2 days)
1 | O=C1Nc2cc(Br)ccc2/C1=C1/Nc2ccccc2/C1=N\O [GSK-3B inhibitor IX, reference compound] | robust expression | – | – | –
2 | Activin A: a member of the TGFβ superfamily; R&D Systems; Group 2 = Activin A (100 ng/ml) | – | formation of extraembryonic endoderm | – | –
3 | Wnt-3a | robust expression | – | significant upregulation | 10 ng/mL
